In patent publication US8338637B2, “Therapeutic compounds” (Allergan, Inc., priority 2006, dated 2012):

Key:
[1] = molecular target: T1, EP2 (Homo sapiens, UniProt P43116); experiment: Competition binding, [3H]PGE2, HEK 293 cells expressing human EP2 receptors; design: expressed in transfected cells; host or cells: HEK 293 cells (membranes or whole cells); settings: [3H]PGE2 competition
Method: Competition binding experiments were performed in a medium containing Hank's balanced salt solution, Hepes 20 mM, pH 7.3, membranes (˜60 μg protein) or 2×10^5 cells from HEK 293 cells stably expressing human EP2 receptors, [^3H]PGE2 (10 nM) and various concentrations of test compounds in a total volume of 300 μl. Reaction mixtures were incubated at 23° C. for 60 min, and were filtered over Whatman GF/B filters under vacuum. Filters were washed three times with 5 ml ice-cold buffer containing 50 mM Tris/HCl (pH 7.3). Non-specific binding was estimated in the presence of excess unlabeled PGE2 (10 μM). Binding data fitted to the binding model for a single class of binding sites, using nonlinear regression analysis. IC50 values thus obtained were converted to Ki using the equation of Ki=(IC50/(1+[L]/KD) where [L] represents PGE2 concentration (10 nM) and KD the dissociation constant for [^3H]PGE2 at human EP2 receptors (40 nM). […]
The cell homogenate was centrifuged at 19000 r.p.m. for 20 min at 4° C. using a Beckman Ti-60 rotor. The resultant pellet was resuspended in TME buffer to give a final 1 mg/ml protein concentration, as determined by Biorad assay. […]
[^3H-] […] 17-phenyl PGF2α and non-specific binding determined with 10^−5M of unlabeled PGE2, or 17-phenyl PGF2α, according to receptor subtype studied.

[2] = molecular target: T2, EP4 receptors (Homo sapiens, UniProt P35408); experiment: Radioligand binding, EP4 receptor; settings: [3H]PGE2 competition
T2 construct: expressed in transfected cells; host or cells: HEK-293 cells (membrane fraction)
T2 sequence (P35408 whole entry): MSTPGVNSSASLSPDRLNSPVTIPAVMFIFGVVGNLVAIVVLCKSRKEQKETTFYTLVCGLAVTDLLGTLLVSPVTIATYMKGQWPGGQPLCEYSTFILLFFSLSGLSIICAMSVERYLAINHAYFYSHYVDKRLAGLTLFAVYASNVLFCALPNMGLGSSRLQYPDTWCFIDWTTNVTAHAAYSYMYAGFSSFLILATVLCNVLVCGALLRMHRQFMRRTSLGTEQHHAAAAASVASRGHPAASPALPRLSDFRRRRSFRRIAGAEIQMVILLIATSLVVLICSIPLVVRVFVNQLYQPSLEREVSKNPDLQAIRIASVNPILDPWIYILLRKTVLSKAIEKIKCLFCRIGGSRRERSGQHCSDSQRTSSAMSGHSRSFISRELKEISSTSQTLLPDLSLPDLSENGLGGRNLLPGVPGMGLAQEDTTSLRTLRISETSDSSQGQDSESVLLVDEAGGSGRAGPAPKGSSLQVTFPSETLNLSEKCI
Method: HEK-293 cells stably expressing the human or feline FP receptor, or EP1, EP2, or EP4 receptors were washed with TME buffer, scraped from the bottom of the flasks, and homogenized for 30 sec using a Brinkman PT 10/35 polytron. TME buffer was added to achieve a final 40 ml volume in the centrifuge tubes (the composition of TME is 100 mM TRIS base, 20 mM MgCl2, […]; 10N HCl is added to achieve a pH of 7.4).
The cell homogenate was centrifuged at 19000 r.p.m. for 20 min at 4° C. using a Beckman Ti-60 rotor. The resultant pellet was resuspended in TME buffer to give a final 1 mg/ml protein concentration, as determined by Biorad assay. Radioligand binding competition assays vs. [^3H-]17-phenyl PGF2[…] (5 nM) were performed in a 100 μl volume for 60 min. Binding reactions were started by adding plasma membrane fraction. The reaction was terminated by the addition of 4 ml ice-cold TRIS-HCl buffer and rapid filtration through glass fiber GF/B filters using a Brandel cell harvester. The filters were washed 3 times with ice-cold buffer and oven dried for one hour.
[^3H-] PGE2 (specific activity 180 Ci mmol) was used as the radioligand for EP receptors. [^3H] 17-phenyl PGF2α was employed for FP receptor binding studies. […] 17-phenyl PGF2α and non-specific binding determined with 10^−5M of unlabeled PGE2, or 17-phenyl PGF2α, according to receptor subtype studied.

[3] = molecular target: T1, EP2; experiment: cAMP assay, HEK-EBNA cells expressing EP2; format: cell-based; design: expressed in transfected cells; host or cells: HEK-EBNA cells
Method: A 384-well drug plate was prepared to contain 6 test compounds, PGE2 and cAMP in 16 serial dilutions in triplicate, using a Biomek station. HEK-EBNA cells expressing a target PG receptor subtype (EP2 or EP4) were suspended in a stimulation buffer (HBSS, 0.1% BSA, 0.5 mM IBMX and 5 mM HEPES, pH 7.4) in a density of 10^4 cells/5 μl. The reaction was initiated by mixing 5 μL drug dilutions with 5 μl of HEK-EBNA cells in a well, carried out for 30 min at room temperature, and followed by the addition of 5 μl anti-cAMP acceptor beads in the control buffer with Tween-20 (25 mM NaCl, 0.03% Tween-20, 5 mM HEPES, pH7.4). After 30 min in the dark at room temperature, the mixtures were incubated with 15 μl biotinylated-cAMP/strepavidin donor beads in Lysis/Detection buffer (0.1% BSA, 0.3% Tween-20 and 5 mM HEPES, pH7.4) for 45 min at the room temperature. Fluorescence changes were read using a Fusion-alpha HT microplate reader.

T1 sequence (P43116 whole entry): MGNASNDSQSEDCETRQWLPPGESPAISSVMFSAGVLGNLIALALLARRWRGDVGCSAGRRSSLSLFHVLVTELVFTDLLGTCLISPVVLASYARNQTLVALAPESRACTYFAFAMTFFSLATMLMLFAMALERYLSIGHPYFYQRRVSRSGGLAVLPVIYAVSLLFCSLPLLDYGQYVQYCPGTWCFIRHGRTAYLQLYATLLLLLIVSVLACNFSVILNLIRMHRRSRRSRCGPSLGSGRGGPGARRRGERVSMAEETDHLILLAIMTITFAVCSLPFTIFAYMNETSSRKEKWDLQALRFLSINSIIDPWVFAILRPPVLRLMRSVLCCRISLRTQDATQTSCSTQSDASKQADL

Row | SMILES | Ki [1] | Ki [2] | EC50 [3]
1 | O=C(O)c1ccc(CCC[C@H]2CCC(=O)[C@@H]2COc2cc(Cl)cc(CO)c2)s1 [5-{3-[(1S,2S)-2-(3-Chloro-5-hydroxymethyl-phenoxymethyl)-3-oxo-cyclopentyl]-propyl}thiophene-2-carboxylic acid] | 300 nM | > 10000 nM | 457 nM
2 | O=C(O)c1ccc(CCC[C@H]2C=CC(=O)[C@@H]2COc2cc(Cl)cc(CO)c2)s1 [5-{3-[(1S,5S)-5-(3-Chloro-5-hydroxymethyl-phenoxymethyl)-4-oxo-cyclopent-2-enyl]-propyl}-thiophene-2-carboxylic acid] | 201 nM | – | 8.7 nM
